Laboratory results reported in patent US12617762B2, “Carboxy derivatives with antiinflamatory properties” (Sitryx Therapeutics Limited, priority 2019, dated 2026).
Where two headings read alike, the source gives them in different places.

Key:
[1] = Hepatocyte stability assay, human; assay type: in vitro ADME; settings: human, hepatocytes; for hepatocyte CLint at 10 μM: Hepatocyte stability Clint; for half-life at 10 μM: Hepatocyte stability T½
Procedure, shortened: (§1)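 Thawed cryopreserved hepatocytes (viability >70%) at 0.5×10^6 cells/mL in Leibovitz buffer were preincubated at 37° C, then given 10 μM compound (0.1% DMSO) in duplicate. Samples at 0–60 min were quenched in acetonitrile and analysed by LC-MS/MS. Intrinsic clearance and half-life were derived from ln % remaining versus time.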

[2] = system: IL-6 cytokine output from THP-1s; assay: THP-1 AlphaLISA IL-6 cytokine inhibition assay; assay type: cell-based; settings: Homo sapiens
Procedure, shortened: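 THP-1 cells differentiated with PMA for 72 h, then pre-incubated with compound 30 min, stimulated with LPS 24 h, then Nigericin 1 h, all at 37° C. Supernatant IL-6 measured by AlphaLISA. Percentage inhibition normalized to +/− LPS plate controls.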

[3] = Hepatocyte stability assay, mouse; assay type: in vitro ADME; settings: mouse, hepatocytes; for hepatocyte CLint at 10 μM: Hepatocyte stability Clint; for half-life at 10 μM: Hepatocyte stability T½
Procedure, shortened: as §1

[4] = system: IL-1β cytokine output from THP-1s; assay: THP-1 AlphaLISA IL-1β cytokine inhibition assay; assay type: cell-based; settings: for IC50: Homo sapiens
Procedure, shortened: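 IL-1β release by AlphaLISA, expressed as % inhibition against +/− LPS controls on each plate. Differentiation: PMA, 72 h. Sequence: 30 min compound pre-treatment, LPS 24 h, Nigericin 1 h before supernatant harvest, all at 37° C./5% CO2.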

[5] = system: NRF2 (nuclear factor erythroid 2-related factor 2); assay: NRF2 +/-GSH activation assay (DiscoverX PathHunter NRF2 translocation kit, U2OS cells); assay type: cell-based
Procedure, shortened: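 Activation is expressed as percent of plate DMF (high) versus no-DMF (low) controls, from luminescence after 6 h compound exposure at 37 °C of U2OS PathHunter cells. The +GSH condition used compound pre-incubated 30 min in 6 mM working GSH; −GSH cells received compound directly.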

[6] = THP-1, differentiated THP-1 cells, LPS then nigericin
[7] = +GSH, 30 minute compound-GSH pre-incubation, read-out: NRF2 activation +GSH EC50
[8] = +GSH, normalised to DMF high control
[9] = −GSH, U2OS PathHunter cells, 6 hours compound treatment, read-out: NRF2 activation −GSH EC50
[10] = −GSH, normalised to DMF high control
[11] = differentiated THP-1 cells, LPS then nigericin
[12] = THP-1, differentiated THP-1 cells, data from repeated experiments

SMILES | hepatocyte CLint at 10 μM [1] [µL/min/1e6 cells] | half-life at 10 μM [1] [min] | IC50 [2, 6] [µM] | hepatocyte CLint at 10 μM [3] [µL/min/1e6 cells] | half-life at 10 μM [3] [min] | IC50 [4, 6] [µM] | EC50 [5, 7] [µM] | NRF2 activation +GSH Emax [5, 8] [%] | EC50 [5, 9] [µM] | NRF2 activation −GSH Emax [5, 10] [%] | IC50 [2, 11] [µM] | IC50 [2, 12] [µM] | IC50 [4, 12] [µM] | IL-1β lowering, result in words ([4]; THP-1 IL-1β assay) | IC50 ([4]; THP-1, Table 3, head to head comparison of exo vs endo double bond compounds) [µM] | EC50 ([5]; −GSH, Table 5 exo vs endo comparison, read-out: −GSH EC50) [µM] | −GSH Emax ([5]; −GSH, normalised to DMF high control, Table 5 exo vs endo comparison) [%]
C=C(Cc1nc(Cc2ccc(CCC)cc2)no1)C(=O)O [Example 70, 2-((3-(4-propylbenzyl)-1,2,4-oxadiazol-5-yl)methyl)acrylic acid] | 13 | 117 | 9.4 | 58 | 26 | 25.3 | 15.6 | 147 | 13.4 | 188 | – | – | – | – | – | – | –
C=C(Cc1nc(C(F)(F)c2ccc(Br)cc2)no1)C(=O)O [Example 90, 2-((3-((4-bromophenyl)difluoromethyl)-1,2,4-oxadiazol-5-yl)methyl)acrylic acid] | 7 | 206 | 15.7 | 34 | 56 | 3.4 | 44 | 130 | 45.3 | 172 | – | – | – | – | – | – | –
C=C(Cc1nc(C(F)(F)c2ccc(SC(F)(F)F)cc2)no1)C(=O)O [Example 155, 2-((3-(difluoro(4-((trifluoromethyl)thio)phenyl)methyl)-1,2,4-oxadiazol-5-yl)methyl)acrylic acid] | 8 | 201 | – | 87 | 17 | 9.1 | 13.7 | 123 | 11.2 | 201 | 13.1 | – | – | – | – | – | –
C=C(C(=O)O)C(OC)c1nc(CCCCCCCC)no1 (stereo not shown) [Example 110, 2-(methoxy(3-octyl-1,2,4-oxadiazol-5-yl)methyl)acrylic acid] | > 460 | < 3 | – | > 460 | < 3 | > 31.6 | 48.8 | 132 | 38.9 | 153 | 9.8 | – | – | – | – | – | –
C=C(Cc1noc(CCCCCCCC)n1)C(=O)O [Example 3, 2-((5-octyl-1,2,4-oxadiazol-3-yl)methyl)acrylic acid] | 110 | 15 | 4.4 | 117 | 12 | 14.6 | 6.9 | 199 | 3.7 | 218 | – | – | – | – | – | – | –
C=C(Cc1nc(Cc2ccc(-c3ccc(Cl)cc3)cc2)no1)C(=O)O [Example 19, 2-((3-((4′-chloro-[1,1′-biphenyl]-4-yl)methyl)-1,2,4-oxadiazol-5-yl)methyl)acrylic acid] | 63 | 20 | 3.3 | > 460 | < 3 | 77 | 7.4 | 140 | 2.5 | 206 | – | – | – | – | – | – | –
C=C(Cc1nc(Cc2ccc(CCCC)cc2)no1)C(=O)O [Example 20, 2-((3-(4-butylbenzyl)-1,2,4-oxadiazol-5-yl)methyl)acrylic acid] | 70 | 24 | 2.7 | 427 | 4 | 14.7 | 3 | 146 | 2.9 | 206 | – | – | – | – | – | – | –
C=C(Cc1nc(C2(c3ccc(C(F)(F)F)cc3)CC2)no1)C(=O)O [Example 22, 2-((3-(1-(4-(trifluoromethyl)phenyl)cyclopropyl)-1,2,4-oxadiazol-5-yl)methyl)acrylic acid] | 20 | 84 | – | 42 | 41 | 10.9 | 60.2 | 62 | 48.7 | 69 | – | 43.5 | 8.7 | – | – | – | –
C=C(Cc1nc(C2(c3ccc(F)cc3)CC2)no1)C(=O)O [Example 44, 2-((3-(1-(4-fluorophenyl)cyclopropyl)-1,2,4-oxadiazol-5-yl)methyl)acrylic acid] | 10 | 144 | 29.9 | 37 | 44 | > 100 | > 100 | 23 | 28.7 | 65 | – | – | – | not effective | – | – | –
C=C(Cc1noc(C2(c3ccc(Br)cc3)CC2)n1)C(=O)O [Example 89, 2-((5-(1-(4-bromophenyl)cyclopropyl)-1,2,4-oxadiazol-3-yl)methyl)acrylic acid] | 38 | 41 | – | 336 | 5 | 12.2 | 42.2 | 63 | 30.7 | 99 | 33.4 | – | – | – | – | – | –
C=C(Cc1nc(-c2ccc(C(F)(F)CCCC)cc2)no1)C(=O)O [Example 79, 2-((3-(4-(1,1-difluoropentyl)phenyl)-1,2,4-oxadiazol-5-yl)methyl)acrylic acid] | 147 | 11 | 2.2 | > 460 | < 3 | 6.7 | 2.1 | 181 | 1.8 | 271 | – | – | – | – | – | – | –
C=C(Cc1nc(Cc2ccc(C(F)(F)CCCC)cc2)no1)C(=O)O [Example 93, 2-((3-(4-(1,1-difluoropentyl)benzyl)-1,2,4-oxadiazol-5-yl)methyl)acrylic acid] | 40 | 38 | 8.7 | > 460 | < 3 | 16.1 | 14.3 | 190 | 12.6 | 224 | – | – | – | – | – | – | –
C=C(Cc1nc(C2(c3ccc(Br)cc3)CC2)no1)C(=O)O [Example 50, 2-((3-(1-(4-bromophenyl)cyclopropyl)-1,2,4-oxadiazol-5-yl)methyl)acrylic acid] | 25 | 53 | 20.3 | 146 | 9 | 4.5 | 39.2 | 88 | 35.9 | 150 | – | – | – | – | 4.5 | 35.9 | 150
C=C(Cc1cc(CCCCCCCC)on1)C(=O)O [Example 102, 2-((5-octylisoxazol-3-yl)methyl)acrylic acid] | > 460 | < 3 | – | > 460 | < 3 | 7.4 | 9.5 | 230 | 7.2 | 342 | 5.2 | – | – | – | – | – | –
C=C(Cc1noc(C(F)(F)c2ccc(Br)cc2)n1)C(=O)O [Example 85, 2-((5-((4-bromophenyl)difluoromethyl)-1,2,4-oxadiazol-3-yl)methyl)acrylic acid] | 20 | 77 | – | 131 | 13 | 13.6 | 34.7 | 208 | 21.6 | 282 | 18.5 | – | – | – | – | – | –
C=C(Cc1nc(CCCCCCC(F)(F)C(F)(F)F)no1)C(=O)O [Example 17, 2-((3-(7,7,8,8,8-pentafluorooctyl)-1,2,4-oxadiazol-5-yl)methyl)acrylic acid] | 42 | 34 | 5.3 | 105 | 12 | 19.3 | 8.7 | 140 | 5.1 | 179 | – | – | – | – | – | – | –
C=C(Cc1nc(Cc2ccc(C3CCCC3)cc2)no1)C(=O)O [Example 112, 2-((3-(4-cyclopentylbenzyl)-1,2,4-oxadiazol-5-yl)methyl)acrylic acid] | 25 | 61 | 4.4 | 160 | 12 | 14.2 | 10.7 | 283 | 7.3 | 284 | – | – | – | – | – | – | –
